Experiments:
[1] = Intrinsic dissolution of ibuprofen and HydroSolve-Ibuprofen in pH 7.2 buffer (paddle, absorbance 221 nm); assay type: physicochemical; conditions: 700 ml pH 7.2 buffer, paddle 50 rpm
Protocol: b. Procedures: • 1.Melt Gelucire and Pluronic, and dissolve ibuprofen into the mixture. • 2.Add the above solution into Sorbitol Instant while stirring. • 3.Cool down and pass through #20 mesh screen. c. Dissolution Test Using the Dissolution Test as follows: • 1.Measure 3.3 mg and 17.2 mg of ibuprofen (20 micron) and HydroSolve - Ibuprofen, respectively. • 2.Measure the dissolution profiles using 700 ml of pH 7.2 buffer and paddle at 50 rpm. • 3.Measure the absorbance at 221 nm.

[2] = Intrinsic dissolution of phenytoin and HydroSolve-phenytoin in DI water (paddle method, absorbance 220 nm); assay type: physicochemical; conditions: 900 ml D1 water, Paddle Method 50 rpm
Protocol: b. Procedures: • 1. Melt Gelucire and Pluronic together. • 2. Dissolve the phenytoin into above solution. • 3. Congeal this suspension and pass through #20 mesh. • 4. Measure about 32 and 110 mg of phenytoin and HydroSolve - phenytoin, respectively. • 5. Measure the dissolution profiles using 900 ml of D1 water and Paddle Method at 50 rpm. • 6. Using D1 water as blank, measure the absorbance at 220 nm of each sample which is filtered through 0.45 micron filters. • 7. Calculate the percent released by standard curve: Absorbance = 0.4072 x Concentration (mg/100ml) + 0.0227 [formula] c.

CC(C)Cc1ccc(C(C)C(=O)O)cc1 (stereo not shown) [Ibuprofen]
Dissolution profile (Results) ([1]; Time 10 min): 75.93 | Dissolution profile (Results) ([1]; Time 20 min): 81.14 | Dissolution profile (Results) ([1]; Time 30 min): 81.14

O=C1NC(=O)C(c2ccccc2)(c2ccccc2)N1 [Phenytoin]
% Dissolved (%) ([2]; Time 0.5 h): 3.03% | % Dissolved (%) ([2]; Time 1 h): 5.92% | % Dissolved (%) ([2]; Time 2 h): 14.42% | % Dissolved (%) ([2]; Time 3 h): 20.58%

— EP0996429B1, “SOLID STATE SOLUTIONS AND DISPERSIONS OF POORLY WATER SOLUBLE DRUGS” (MERCK PATENT GmbH, priority 1997, dated 1999)
